Tests used:
Format in all cases: in vivo
[1] = tested on: velvetleaf (Abutilon theophrasti, ABUTH); experiment: Test A post-emergence, velvetleaf; settings: after 13 d
Method in brief: (§1)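 Plants sown in standard soil were grown 8 d in a glasshouse (24/16 °C day/night, 14 h light, 65% humidity), then sprayed with compound in acetone/water (50:50) with 0.5% Tween 20 at 15.625, 62.5 or 250 g/ha. Damage was scored after 13 d (0 = none, 100 = total).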

[2] = tested on: redroot pigweed (Amaranthus retroflexus, AMARE); experiment: Test A post-emergence, redroot pigweed; settings: after 13 d
Method in brief: as §1

[3] = tested on: redroot pigweed (Amaranthus retroflexus, AMARE); experiment: Test A pre-emergence, redroot pigweed; settings: after 13 d
Method in brief: (§2)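 Each compound is applied pre-emergence at 15.625, 62.5 or 250 g/ha, one day after seeds are sown in standard soil. Plants are then grown in a glasshouse at 24/16° C. with 14 h light and 65% humidity, and injury is scored 0–100 at 13 d.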

[4] = tested on: ivy-leaved morning glory (Ipomoea hederacea, IPOHE); experiment: Test A pre-emergence, ivy-leaved morning glory; settings: after 13 d
Method in brief: as §2

plants = experiment: Test D post-emergence, other plants of Tables D2 and D4; settings: "Cereals" Postemergent, evaluated after 15 d
Method in brief: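 Damage was rated visually from 0 (none) to 100 (total), at 20 DAA for pre-emergence and 15 d for post-emergence. Plants grew from safener-treated seed in a glasshouse at 24/18° C. or 20/16° C. day/night, 65% humidity, watered twice daily.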

CN1CC(c2cc(C(F)(F)F)n(C)n2)C(C(=O)Nc2ccc(F)cc2F)C1=O (racemic) [Compound 6]
40: SINAR damage rating (100=total damage to plant; 0=no damage to plant) (plants; SINAR, Rates 500)
70: damage to plant (100=total damage; 0=no damage) ABUTH ([1]; Post-Emergence at 62.5 g/ha)
30: HORVW damage rating (100=total damage to plant; 0=no damage to plant) (plants; Rates 500)
20: damage to plant (100=total damage; 0=no damage) AMARE ([3]; Pre-Emergence at 15.625 g/ha) | damage to plant (100=total damage; 0=no damage) AMARE ([3]; Pre-Emergence at 62.5 g/ha) | GALAP damage rating (100=total damage to plant; 0=no damage to plant) (plants; Rates 500)
10: damage to plant (100=total damage; 0=no damage) AMARE ([2]; Post-Emergence at 62.5 g/ha) | damage to plant (100=total damage; 0=no damage) AMARE ([2]; Post-Emergence at 250 g/ha) | damage to plant (100=total damage; 0=no damage) IPOHE ([4]; Pre-Emergence at 250 g/ha) | AVEFA damage rating (100=total damage to plant; 0=no damage to plant) (plants; Rates 500) | BROTE damage rating (100=total damage to plant; 0=no damage to plant) (plants; Rates 500) | BRSNN damage rating (100=total damage to plant; 0=no damage to plant) (plants; Rates 500) | GALAP damage rating (100=total damage to plant; 0=no damage to plant) (plants; Rates 250) | HORVW damage rating (100=total damage to plant; 0=no damage to plant) (plants; Rates 250) | KCHSC damage rating (100=total damage to plant; 0=no damage to plant) (plants; Rates 500) | POAAN damage rating (100=total damage to plant; 0=no damage to plant) (plants; Rates 500)
60: damage to plant (100=total damage; 0=no damage) ABUTH ([1]; Post-Emergence at 15.625 g/ha) | damage to plant (100=total damage; 0=no damage) ABUTH ([1]; Post-Emergence at 250 g/ha)
50: damage to plant (100=total damage; 0=no damage) AMARE ([3]; Pre-Emergence at 250 g/ha)
0: damage to plant (100=total damage; 0=no damage) AMARE ([2]; Post-Emergence at 15.625 g/ha) | damage to plant (100=total damage; 0=no damage) IPOHE ([4]; Pre-Emergence at 15.625 g/ha) | damage to plant (100=total damage; 0=no damage) IPOHE ([4]; Pre-Emergence at 62.5 g/ha) | ALOMY damage rating (100=total damage to plant; 0=no damage to plant) (plants; Rates 130) | ALOMY damage rating (100=total damage to plant; 0=no damage to plant) (plants; Rates 250) | ALOMY damage rating (100=total damage to plant; 0=no damage to plant) (plants; Rates 500) | AVEFA damage rating (100=total damage to plant; 0=no damage to plant) (plants; Rates 130) | AVEFA damage rating (100=total damage to plant; 0=no damage to plant) (plants; Rates 250) | BEAVA damage rating (100=total damage to plant; 0=no damage to plant) (plants; Rates 130) | BEAVA damage rating (100=total damage to plant; 0=no damage to plant) (plants; Rates 250) | BEAVA damage rating (100=total damage to plant; 0=no damage to plant) (plants; Rates 500) | BROTE damage rating (100=total damage to plant; 0=no damage to plant) (plants; Rates 130) | BROTE damage rating (100=total damage to plant; 0=no damage to plant) (plants; Rates 250) | BRSNN damage rating (100=total damage to plant; 0=no damage to plant) (plants; Rates 130) | BRSNN damage rating (100=total damage to plant; 0=no damage to plant) (plants; Rates 250) | CHEAL damage rating (100=total damage to plant; 0=no damage to plant) (plants; Rates 130) | CHEAL damage rating (100=total damage to plant; 0=no damage to plant) (plants; Rates 250) | CHEAL damage rating (100=total damage to plant; 0=no damage to plant) (plants; Rates 500) | GALAP damage rating (100=total damage to plant; 0=no damage to plant) (plants; Rates 130) | HORVW damage rating (100=total damage to plant; 0=no damage to plant) (plants; Rates 130) | KCHSC damage rating (100=total damage to plant; 0=no damage to plant) (plants; Rates 130) | KCHSC damage rating (100=total damage to plant; 0=no damage to plant) (plants; Rates 250) | LOLPE damage rating (100=total damage to plant; 0=no damage to plant) (plants; Rates 130) | LOLPE damage rating (100=total damage to plant; 0=no damage to plant) (plants; Rates 250) | LOLPE damage rating (100=total damage to plant; 0=no damage to plant) (plants; Rates 500) | POAAN damage rating (100=total damage to plant; 0=no damage to plant) (plants; Rates 130) | POAAN damage rating (100=total damage to plant; 0=no damage to plant) (plants; Rates 250) | POLCO damage rating (100=total damage to plant; 0=no damage to plant) (plants; Rates 130) | POLCO damage rating (100=total damage to plant; 0=no damage to plant) (plants; Rates 250) | POLCO damage rating (100=total damage to plant; 0=no damage to plant) (plants; Rates 500)

Source: US20220281848A1, “PYRAZOLE-SUBSTITUTED PYRROLIDINONES AS HERBICIDES” (FMC Corporation, priority 2019, published 2022)
